Assay results published in publication PMC5218480 (PLoS ONE, 2017).

System: MV-4-11 cells
Assay: Gene expression microarray analysis (Affymetrix PrimeView) and GSEA
Assay type: cell-based, human
Design: RFU PODN (11730768_x_at) / Fold change /veh PODN (11730768_x_at) / RFU LINC00158 (11744669_a_at) / Fold change /veh LINC00158 (11744669_a_at) / RFU DUSP10 (11751237_a_at) / Fold change /veh DUSP10 (11751237_a_at) / RFU ID3 (11757404_x_at) / Fold change /veh ID3 (11757404_x_at) / RFU PLEKHG5 (11737974_s_at) / Fold change /veh PLEKHG5 (11737974_s_at) / RFU LRRC4B (11730491_at) / Fold change /veh LRRC4B (11730491_at) / RFU GIMAP4 (11747438_a_at) / Fold change /veh GIMAP4 (11747438_a_at) / RFU KRT8 (11758183_x_at) / Fold change /veh KRT8 (11758183_x_at) / RFU CNN1 (11734310_a_at) / Fold change /veh CNN1 (11734310_a_at) / RFU VPS37D (11726825_at) / Fold change /veh VPS37D (11726825_at) / RFU C10orf10 (11716522_x_at) / Fold change /veh C10orf10 (11716522_x_at) / RFU KIR2DL2 /// KIR2DL4 /// KIR2DL5A /// KIR2DL5B /// KIR2DS1 /// KIR2DS2 /// KIR2DS3 /// KIR2DS4 /// KIR3DL3 /// KIR3DL3 /// KIR3DS1 (11738374_at) / Fold change /veh KIR2DL2 /// KIR2DL4 /// KIR2DL5A /// KIR2DL5B /// KIR2DS1 /// KIR2DS2 /// KIR2DS3 /// KIR2DS4 /// KIR3DL3 /// KIR3DL3 /// KIR3DS1 (11738374_at) / RFU C1QL1 (11718748_at) / Fold change /veh C1QL1 (11718748_at) / RFU TMPRSS4 (11747572_a_at) / Fold change /veh TMPRSS4 (11747572_a_at) / RFU HAMP (11756126_x_at) / Fold change /veh HAMP (11756126_x_at) / RFU RNFT2 (11725882_a_at) / Fold change /veh RNFT2 (11725882_a_at) / RFU NR4A2 (11747474_a_at) / Fold change /veh NR4A2 (11747474_a_at) / RFU ABCC12 (11746883_a_at) / Fold change /veh ABCC12 (11746883_a_at) / RFU TMEM136 (11760407_x_at) / Fold change /veh TMEM136 (11760407_x_at) / RFU CLDN22 /// WWC2 (11732394_at) / Fold change /veh CLDN22 /// WWC2 (11732394_at) / RFU HLA-DPB1 (11760878_x_at) / Fold change /veh HLA-DPB1 (11760878_x_at) / RFU SPINT1 (11716480_a_at) / Fold change /veh SPINT1 (11716480_a_at) / RFU GAP43 (11754022_s_at) / Fold change /veh GAP43 (11754022_s_at) / RFU A4GNT (11735810_at) / Fold change /veh A4GNT (11735810_at) / RFU PRB3 (11715151_x_at) / Fold change /veh PRB3 (11715151_x_at) / RFU TUBB4B (11761932_at) / Fold change /veh TUBB4B (11761932_at) / RFU CAPN14 (11732068_a_at) / Fold change /veh CAPN14 (11732068_a_at) / RFU TMCC2 (11721928_a_at) / Fold change /veh TMCC2 (11721928_a_at) / RFU IRGQ (11745062_a_at) / Fold change /veh IRGQ (11745062_a_at) / RFU FAM174B (11720279_a_at) / Fold change /veh FAM174B (11720279_a_at) / RFU TMPRSS4 (11748680_a_at) / Fold change /veh TMPRSS4 (11748680_a_at) / RFU FAM212B (11763350_a_at) / Fold change /veh FAM212B (11763350_a_at) / RFU PLEKHG5 (11743358_a_at) / Fold change /veh PLEKHG5 (11743358_a_at) / RFU ZSCAN30 (11745921_a_at) / Fold change /veh ZSCAN30 (11745921_a_at) / RFU CMKLR1 (11741424_a_at) / Fold change /veh CMKLR1 (11741424_a_at) / RFU LOC101060620 /// MAPK8IP1 (11723275_at) / Fold change /veh LOC101060620 /// MAPK8IP1 (11723275_at) / RFU SPTSSB (11747773_x_at) / Fold change /veh SPTSSB (11747773_x_at) / RFU PRSS12 (11739890_at) / Fold change /veh PRSS12 (11739890_at) / RFU BIN1 (11741810_x_at) / Fold change /veh BIN1 (11741810_x_at) / RFU WNT11 (11732464_a_at) / Fold change /veh WNT11 (11732464_a_at) / RFU C10orf10 (11716521_a_at) / Fold change /veh C10orf10 (11716521_a_at) / RFU C5orf56 (11738089_at) / Fold change /veh C5orf56 (11738089_at) / RFU CYB561 (11721691_x_at) / Fold change /veh CYB561 (11721691_x_at) / RFU ANKRD19P (11752326_a_at) / Fold change /veh ANKRD19P (11752326_a_at) / RFU OR2T12 /// OR2T33 /// OR2T8 (11738714_s_at) / Fold change /veh OR2T12 /// OR2T33 /// OR2T8 (11738714_s_at) / RFU VCAN (11748164_a_at) / Fold change /veh VCAN (11748164_a_at) / RFU JSRP1 (11732532_at) / Fold change /veh JSRP1 (11732532_at) / RFU KRTAP10-11 (11738290_x_at) / Fold change /veh KRTAP10-11 (11738290_x_at) / RFU MYO3A (11730013_a_at) / Fold change /veh MYO3A (11730013_a_at) / RFU EBF3 (11725865_a_at) / Fold change /veh EBF3 (11725865_a_at) / RFU CAMK2N1 (11719241_x_at) / Fold change /veh CAMK2N1 (11719241_x_at) / RFU C5orf56 (11738088_a_at) / Fold change /veh C5orf56 (11738088_a_at) / RFU OLFML3 (11715873_a_at) / Fold change /veh OLFML3 (11715873_a_at) / RFU LOC100653217 /// NTM (11731650_a_at) / Fold change /veh LOC100653217 /// NTM (11731650_a_at) / RFU MAPK11 (11762145_a_at) / Fold change /veh MAPK11 (11762145_a_at) / RFU FIZ1 (11724087_x_at) / Fold change /veh FIZ1 (11724087_x_at) / RFU OASL (11726364_x_at) / Fold change /veh OASL (11726364_x_at) / RFU SOX15 (11748057_x_at) / Fold change /veh SOX15 (11748057_x_at) / RFU CD79A (11719716_a_at) / Fold change /veh CD79A (11719716_a_at) / RFU HIST1H1D (11736915_at) / Fold change /veh HIST1H1D (11736915_at) / RFU CASKIN2 (11723855_a_at) / Fold change /veh CASKIN2 (11723855_a_at) / RFU LOC730098 (11760151_x_at) / Fold change /veh LOC730098 (11760151_x_at) / RFU OR4N2 (11742367_at) / Fold change /veh OR4N2 (11742367_at) / RFU PRRT2 (11749266_a_at) / Fold change /veh PRRT2 (11749266_a_at) / RFU SNX32 (11753110_a_at) / Fold change /veh SNX32 (11753110_a_at) / RFU CDHR5 (11726645_a_at) / Fold change /veh CDHR5 (11726645_a_at) / RFU RCAN1 (11760418_a_at) / Fold change /veh RCAN1 (11760418_a_at) / RFU FAM167A (11723789_a_at) / Fold change /veh FAM167A (11723789_a_at) / RFU FAM26E (11764081_at) / Fold change /veh FAM26E (11764081_at) / RFU ISYNA1 (11749810_s_at) / Fold change /veh ISYNA1 (11749810_s_at) / RFU ACY1 (11761880_at) / Fold change /veh ACY1 (11761880_at) / RFU 11764098_at / Fold change /veh 11764098_at / RFU SAMD14 (11745864_x_at) / Fold change /veh SAMD14 (11745864_x_at) / RFU NPB (11741838_a_at) / Fold change /veh NPB (11741838_a_at) / RFU TMPRSS6 (11731388_a_at) / Fold change /veh TMPRSS6 (11731388_a_at) / RFU KRTAP10-2 (11738614_at) / Fold change /veh KRTAP10-2 (11738614_at) / RFU ARHGAP8 /// PRR5-ARHGAP8 (11727945_x_at) / Fold change /veh ARHGAP8 /// PRR5-ARHGAP8 (11727945_x_at) / RFU KRTAP5-7 /// NADSYN1 (11734609_at) / Fold change /veh KRTAP5-7 /// NADSYN1 (11734609_at) / RFU RASL12 (11751679_a_at) / Fold change /veh RASL12 (11751679_a_at) / RFU CDKN2B (11736163_a_at) / Fold change /veh CDKN2B (11736163_a_at) / RFU PRF1 (11729649_at) / Fold change /veh PRF1 (11729649_at) / RFU, ZNF638 /// ZNF638-IT1 / Fold change vs veh, ZNF638 /// ZNF638-IT1 / RFU, PANK3 / Fold change vs veh, PANK3 / RFU, SH3YL1 / Fold change vs veh, SH3YL1 / RFU, ZEB2 / Fold change vs veh, ZEB2 / RFU, NRIP1 / Fold change vs veh, NRIP1 / RFU, PTTG1IP / Fold change vs veh, PTTG1IP / RFU, CAPN2 / Fold change vs veh, CAPN2 / RFU, MED14 / Fold change vs veh, MED14 / RFU, SNORA58 / Fold change vs veh, SNORA58 / RFU, C1orf63 / Fold change vs veh, C1orf63 / RFU, LRRFIP1 / Fold change vs veh, LRRFIP1 / RFU, NDUFAF7 / Fold change vs veh, NDUFAF7 / RFU, SLC12A2 / Fold change vs veh, SLC12A2 / RFU, IBTK / Fold change vs veh, IBTK / RFU, ESF1 / Fold change vs veh, ESF1 / Fold change vs veh, TMEM50B / RFU, TAOK1 / Fold change vs veh, TAOK1 / RFU, ACBD3 / Fold change vs veh, ACBD3 / RFU, TMA16 / Fold change vs veh, TMA16 / RFU, RWDD3 / Fold change vs veh, RWDD3 / RFU, BCAT1 / Fold change vs veh, BCAT1 / RFU, EDEM3 / Fold change vs veh, EDEM3 / RFU, TMEM33 / Fold change vs veh, TMEM33 / RFU, WDR75 / Fold change vs veh, WDR75 / RFU, AHCTF1 / Fold change vs veh, AHCTF1 / RFU, TFRC / Fold change vs veh, TFRC / RFU, ZDHHC17 / Fold change vs veh, ZDHHC17 / RFU, NOM1 / Fold change vs veh, NOM1 / RFU, ARL8B / Fold change vs veh, ARL8B / RFU, ZBTB11 / Fold change vs veh, ZBTB11 / RFU, TAMM41 / Fold change vs veh, TAMM41 / RFU, KIAA1704 /// LOC100996395 / Fold change vs veh, KIAA1704 /// LOC100996395 / RFU, ING1 / Fold change vs veh, ING1 / RFU, TRMT61B / Fold change vs veh, TRMT61B / RFU, FUBP3 / Fold change vs veh, FUBP3 / RFU, TP53 / Fold change vs veh, TP53 / RFU, TNKS2 / Fold change vs veh, TNKS2 / RFU, ZFP14 / Fold change vs veh, ZFP14 / RFU, ACTR2 / Fold change vs veh, ACTR2 / RFU, PPP3R1 / Fold change vs veh, PPP3R1 / RFU, PIK3R1 / Fold change vs veh, PIK3R1 / RFU, HNRNPA1 / Fold change vs veh, HNRNPA1 / RFU, RNF170 / Fold change vs veh, RNF170 / RFU, ZNF28 / Fold change vs veh, ZNF28 / RFU, RNGTT / Fold change vs veh, RNGTT / RFU, OGT / Fold change vs veh, OGT / RFU, BRD1 / Fold change vs veh, BRD1 / RFU, MARS / Fold change vs veh, MARS / RFU, ZNF655 / Fold change vs veh, ZNF655 / RFU, FAHD1 / Fold change vs veh, FAHD1 / RFU, BDP1 / Fold change vs veh, BDP1 / RFU, LRRCC1 / Fold change vs veh, LRRCC1 / RFU, ARID1A / Fold change vs veh, ARID1A / RFU, ZNF146 / Fold change vs veh, ZNF146 / RFU, ZNF330 / Fold change vs veh, ZNF330 / RFU, GPN3 / Fold change vs veh, GPN3 / RFU, C9orf123 / Fold change vs veh, C9orf123 / RFU, N4BP2L2 / Fold change vs veh, N4BP2L2 / RFU, ARFIP1 / Fold change vs veh, ARFIP1 / RFU, FAM179B / Fold change vs veh, FAM179B / RFU, BCL10 / Fold change vs veh, BCL10 / RFU, UHRF1BP1L / Fold change vs veh, UHRF1BP1L / RFU, BET1 / Fold change vs veh, BET1 / RFU, CNOT2 / Fold change vs veh, CNOT2 / RFU, ZNF268 / Fold change vs veh, ZNF268 / Fold change vs veh, ZNF507 / RFU, DGCR2 / Fold change vs veh, DGCR2 / RFU, WDSUB1 / Fold change vs veh, WDSUB1 / Fold change vs veh, HSP90B1 /// MIR3652 / RFU, ADSS / Fold change vs veh, ADSS / RFU, GK / Fold change vs veh, GK / RFU, ZNF148 / Fold change vs veh, ZNF148 / RFU, TAF9 / Fold change vs veh, TAF9 / RFU, SLC1A5 / Fold change vs veh, SLC1A5 / RFU, SLMO2 / Fold change vs veh, SLMO2 / RFU, ABCC4 / Fold change vs veh, ABCC4 / RFU, LOC101060439 /// RAP1B / Fold change vs veh, LOC101060439 /// RAP1B / RFU, RFX7 / Fold change vs veh, RFX7 / RFU, GTPBP10 / Fold change vs veh, GTPBP10 / RFU, CNEP1R1 / Fold change vs veh, CNEP1R1 / RFU, BIVM-ERCC5 /// ERCC5 / Fold change vs veh, BIVM-ERCC5 /// ERCC5 / RFU, ILF3 / Fold change vs veh, ILF3 / RFU 11762660_at / Fold change /veh 11762660_at / RFU VCAN (11757783_s_at) / Fold change /veh VCAN (11757783_s_at) / RFU DDX43 (11728927_at) / Fold change /veh DDX43 (11728927_at) / RFU KRT8 (11758188_x_at) / Fold change /veh KRT8 (11758188_x_at) / RFU NKD1 (11759106_at) / Fold change /veh NKD1 (11759106_at) / RFU SRD5A1 (11742802_a_at) / Fold change /veh SRD5A1 (11742802_a_at) / RFU TPSAB1 /// TPSB2 (11721975_s_at) / Fold change /veh TPSAB1 /// TPSB2 (11721975_s_at) / RFU GSTM3 (11746129_a_at) / Fold change /veh GSTM3 (11746129_a_at) / RFU IL23R (11737362_x_at) / Fold change /veh IL23R (11737362_x_at) / RFU TMEM51 (11727254_a_at) / Fold change /veh TMEM51 (11727254_a_at) / RFU PIWIL2 (11732686_x_at) / Fold change /veh PIWIL2 (11732686_x_at) / RFU ORM1 (11744905_x_at) / Fold change /veh ORM1 (11744905_x_at) / RFU CCDC152 (11743942_at) / Fold change /veh CCDC152 (11743942_at) / RFU ECM1 (11717891_a_at) / Fold change /veh ECM1 (11717891_a_at) / RFU IL23R (11748794_a_at) / Fold change /veh IL23R (11748794_a_at) / RFU TNFAIP8L3 (11732012_x_at) / Fold change /veh TNFAIP8L3 (11732012_x_at) / RFU MBOAT4 (11741988_at) / Fold change /veh MBOAT4 (11741988_at) / RFU 11764193_at / Fold change /veh 11764193_at / RFU TMEM53 (11763286_at) / Fold change /veh TMEM53 (11763286_at) / RFU MAGEB2 (11727129_at) / Fold change /veh MAGEB2 (11727129_at) / RFU TMEM200A (11744735_a_at) / Fold change /veh TMEM200A (11744735_a_at) / RFU CCDC152 (11751479_a_at) / Fold change /veh CCDC152 (11751479_a_at) / RFU FAM211A (11726209_a_at) / Fold change /veh FAM211A (11726209_a_at) / RFU RGS16 (11746705_a_at) / Fold change /veh RGS16 (11746705_a_at) / RFU VCAN (11755009_s_at) / Fold change /veh VCAN (11755009_s_at) / RFU RHOB (11743442_s_at) / Fold change /veh RHOB (11743442_s_at) / RFU RGS16 (11720943_a_at) / Fold change /veh RGS16 (11720943_a_at) / RFU RGS16 (11720944_at) / Fold change /veh RGS16 (11720944_at) / RFU, VPS4B / Fold change vs veh, VPS4B / RFU, CREB1 / Fold change vs veh, CREB1 / RFU, DNAJC13 / Fold change vs veh, DNAJC13 / RFU, GNAQ / Fold change vs veh, GNAQ / RFU, CDK5R1 / Fold change vs veh, CDK5R1 / RFU, ZRANB3 / Fold change vs veh, ZRANB3 / RFU, CUL4A / Fold change vs veh, CUL4A / RFU, CCNY / Fold change vs veh, CCNY / RFU, UFL1 / Fold change vs veh, UFL1 / RFU, COG3 / Fold change vs veh, COG3 / RFU, DIAPH2 / Fold change vs veh, DIAPH2 / RFU, SKA2 / Fold change vs veh, SKA2 / RFU, AFF3 / Fold change vs veh, AFF3 / RFU, LMF1 / Fold change vs veh, LMF1 / RFU, IPO11 / Fold change vs veh, IPO11 / RFU, DFFB / Fold change vs veh, DFFB / RFU, FOXP1 / Fold change vs veh, FOXP1 / RFU, CARD8 / Fold change vs veh, CARD8 / RFU, STRN3 / Fold change vs veh, STRN3 / RFU, ADK / Fold change vs veh, ADK / RFU, RASSF2 / Fold change vs veh, RASSF2 / RFU, WIPF1 / Fold change vs veh, WIPF1 / RFU, LARP1B / Fold change vs veh, LARP1B / RFU, RASA1 / Fold change vs veh, RASA1 / RFU, RB1 / Fold change vs veh, RB1 / RFU, PPFIA1 / Fold change vs veh, PPFIA1 / RFU, MAT2A / Fold change vs veh, MAT2A / RFU, CCT5 / Fold change vs veh, CCT5 / RFU, WDR92 / Fold change vs veh, WDR92 / RFU, CUX1 / Fold change vs veh, CUX1 / RFU, TTC7A / Fold change vs veh, TTC7A / RFU, TMEM135 / Fold change vs veh, TMEM135 / RFU, DEPTOR / Fold change vs veh, DEPTOR / RFU, CPM / Fold change vs veh, CPM / RFU, DNAJB6 / Fold change vs veh, DNAJB6 / RFU, CACNA2D3 / Fold change vs veh, CACNA2D3 / RFU, DTX4 / Fold change vs veh, DTX4 / RFU, TFCP2 / Fold change vs veh, TFCP2 / RFU, GMCL1 /// GMCL1P1 / Fold change vs veh, GMCL1 /// GMCL1P1 / RFU, AEBP2 / Fold change vs veh, AEBP2 / RFU, SNHG1 /// SNORD22 /// SNORD25 /// SNORD26 /// SNORD27 /// SNORD28 /// SNORD29 /// SNORD31 / Fold change vs veh, SNHG1 /// SNORD22 /// SNORD25 /// SNORD26 /// SNORD27 /// SNORD28 /// SNORD29 /// SNORD31 / Fold change (Aza/veh), C12orf56 (ProbeSet 11735607_a_at) / Fold change (ACY-1035/veh), C12orf56 (ProbeSet 11735607_a_at) / Fold change (Aza/veh), FGFR1OP (ProbeSet 11751329_s_at) / Fold change (ACY-1035/veh), FGFR1OP (ProbeSet 11751329_s_at) / Fold change (Aza/veh), VPS36 (ProbeSet 11739960_a_at) / Fold change (ACY-1035/veh), VPS36 (ProbeSet 11739960_a_at) / RFU SYPL1 (11715823_x_at) / Fold change /veh SYPL1 (11715823_x_at) / RFU IGFBP7 (11715501_s_at) / Fold change /veh IGFBP7 (11715501_s_at) / RFU REEP3 (11722064_at) / Fold change /veh REEP3 (11722064_at) / RFU IGLL1 (11728026_x_at) / Fold change /veh IGLL1 (11728026_x_at): dose or concentration left out as unconfirmed
Details: ProbeSet 11752001_a_at; LIST D

Nc1ccc(-c2cccs2)cc1NC(=O)c1ccc2c(c1)cc(C1CC1)n2CCN1CCOCC1 [ACY-1035]
RFU, CUL4A: 438.04 RFU
